Data reported in ChEMBL document CHEMBL5303573, “Mapping human microbiome drug metabolism by gut bacteria and their genes” (Nature, 2019).

Assays:
[1] = The drug is tested on Bifidobacterium ruminantium strain: fecal isolate for biotransformation. The drug concentrations were measured before and after a 12-h incubation by liquid-chromatography-coupled mass spectrometry (LC–MS); conditions: 2 µM
[2] = The drug is tested on Collinsella aerofaciens strain: ATCC25986 for biotransformation. The drug concentrations were measured before and after a 12-h incubation by liquid-chromatography-coupled mass spectrometry (LC–MS); conditions: 2 µM
[3] = The drug is tested on Alistipes indistinctus strain: DSM22520 for biotransformation. The drug concentrations were measured before and after a 12-h incubation by liquid-chromatography-coupled mass spectrometry (LC–MS); conditions: 2 µM
[4] = The drug is tested on Bacteroides caccae strain: ATCC43185 for biotransformation. The drug concentrations were measured before and after a 12-h incubation by liquid-chromatography-coupled mass spectrometry (LC–MS); conditions: 2 µM
[5] = The drug is tested on Bacteroides dorei strain: DSM17855 for biotransformation. The drug concentrations were measured before and after a 12-h incubation by liquid-chromatography-coupled mass spectrometry (LC–MS); conditions: phocaeicola dorei, 2 µM
[6] = The drug is tested on Bacteroides finegoldii strain: DSM17565 for biotransformation. The drug concentrations were measured before and after a 12-h incubation by liquid-chromatography-coupled mass spectrometry (LC–MS); conditions: 2 µM
[7] = The drug is tested on Bacteroides fragilis strain: HMW610 for biotransformation. The drug concentrations were measured before and after a 12-h incubation by liquid-chromatography-coupled mass spectrometry (LC–MS); conditions: 2 µM
[8] = The drug is tested on Bacteroides fragilis strain: HMW615 for biotransformation. The drug concentrations were measured before and after a 12-h incubation by liquid-chromatography-coupled mass spectrometry (LC–MS); conditions: 2 µM
[9] = The drug is tested on Bacteroides sp. WH2 strain: WH2 for biotransformation. The drug concentrations were measured before and after a 12-h incubation by liquid-chromatography-coupled mass spectrometry (LC–MS); conditions: bacteroides sp. wh2, 12 h, 2 µM
[10] = The drug is tested on Anaerococcus hydrogenalis strain: DSM7454 for biotransformation. The drug concentrations were measured before and after a 12-h incubation by liquid-chromatography-coupled mass spectrometry (LC–MS); conditions: 2 µM
[11] = The drug is tested on Blautia luti strain: DSM14534 for biotransformation. The drug concentrations were measured before and after a 12-h incubation by liquid-chromatography-coupled mass spectrometry (LC–MS); assay type: ADME; design: dose 2 uM, timepoint 0 vs 12 hours; conditions: 2 µM
[12] = The drug is tested on Coprococcus comes strain: ATCC27758 for biotransformation. The drug concentrations were measured before and after a 12-h incubation by liquid-chromatography-coupled mass spectrometry (LC–MS); assay type: ADME; design: dose 2 uM, timepoint 0 vs 12 hours; conditions: 2 µM
[13] = The drug is tested on Ruminococcus gnavus strain: ATCC29149 for biotransformation. The drug concentrations were measured before and after a 12-h incubation by liquid-chromatography-coupled mass spectrometry (LC–MS); conditions: mediterraneibacter gnavus, 2 µM
[14] = The drug is tested on Ruminococcus torques strain: ATCC27756 for biotransformation. The drug concentrations were measured before and after a 12-h incubation by liquid-chromatography-coupled mass spectrometry (LC–MS); assay type: ADME; design: dose 2 uM, timepoint 0 vs 12 hours; conditions: 2 µM
[15] = The drug is tested on Edwardsiella tarda strain: ATCC23685 for biotransformation. The drug concentrations were measured before and after a 12-h incubation by liquid-chromatography-coupled mass spectrometry (LC–MS); conditions: 2 µM
[16] = The drug is tested on Enterobacter cancerogenus strain: ATCC35316 for biotransformation. The drug concentrations were measured before and after a 12-h incubation by liquid-chromatography-coupled mass spectrometry (LC–MS); conditions: 2 µM
[17] = anaerostipes sp., 12 h, 2 µM
Description: The drug is tested on Anaerostipes sp. strain: fecal isolate for biotransformation. The drug concentrations were measured before and after a 12-h incubation by liquid-chromatography-coupled mass spectrometry (LC–MS)

[18] = enterocloster bolteae, 12 h, 2 µM
Description: The drug is tested on Clostridium bolteae strain: ATCCBAA-613 for biotransformation. The drug concentrations were measured before and after a 12-h incubation by liquid-chromatography-coupled mass spectrometry (LC–MS)

[19] = The drug is tested on Eubacterium rectale strain: ATCC33656 for biotransformation. The drug concentrations were measured before and after a 12-h incubation by liquid-chromatography-coupled mass spectrometry (LC–MS); conditions: agathobacter rectalis, 2 µM

Nc1nc(N)nc(-c2cc(Cl)ccc2Cl)n1.O=C(O)/C=C\C(=O)O [IRSOGLADINE MALEATE]
Bacterial Biotransformation [1]: Compound metabolized
Bacterial Biotransformation [2]: Compound NOT metabolized
Bacterial Biotransformation [3]: Compound NOT metabolized
Bacterial Biotransformation [4]: Compound NOT metabolized
Bacterial Biotransformation [5]: Compound metabolized
Bacterial Biotransformation [6]: Compound NOT metabolized
Bacterial Biotransformation [7]: Compound NOT metabolized
Bacterial Biotransformation [8]: Compound NOT metabolized
Bacterial Biotransformation [9]: Compound NOT metabolized
Bacterial Biotransformation [10]: Compound NOT metabolized
Bacterial Biotransformation [11]: Compound NOT metabolized
Bacterial Biotransformation [12]: Compound NOT metabolized
Bacterial Biotransformation [13]: Compound NOT metabolized
Bacterial Biotransformation [14]: Compound NOT metabolized
Bacterial Biotransformation [15]: Compound NOT metabolized
Bacterial Biotransformation [16]: Compound NOT metabolized
Bacterial Biotransformation [17]: Compound NOT metabolized
Bacterial Biotransformation [18]: Compound NOT metabolized

CC(C)(C)NC(=O)[C@H]1CC[C@H]2[C@@H]3CC[C@H]4NC(=O)C=C[C@]4(C)[C@H]3CC[C@]12C [FINASTERIDE]
Bacterial Biotransformation [1]: Compound NOT metabolized
Bacterial Biotransformation [2]: Compound NOT metabolized
Bacterial Biotransformation [3]: Compound NOT metabolized
Bacterial Biotransformation [4]: Compound NOT metabolized
Bacterial Biotransformation [5]: Compound metabolized
Bacterial Biotransformation [6]: Compound metabolized
Bacterial Biotransformation [7]: Compound metabolized
Bacterial Biotransformation [8]: Compound metabolized
Bacterial Biotransformation [9]: Compound NOT metabolized
Bacterial Biotransformation [10]: Compound NOT metabolized
Bacterial Biotransformation [11]: Compound NOT metabolized
Bacterial Biotransformation [12]: Compound NOT metabolized
Bacterial Biotransformation [19]: Compound NOT metabolized
Bacterial Biotransformation [13]: Compound NOT metabolized
Bacterial Biotransformation [14]: Compound NOT metabolized
Bacterial Biotransformation [15]: Compound NOT metabolized
Bacterial Biotransformation [16]: Compound NOT metabolized
Bacterial Biotransformation [17]: Compound NOT metabolized
Bacterial Biotransformation [18]: Compound NOT metabolized

Cc1ccnc2c1NC(=O)c1cccnc1N2C1CC1 [NEVIRAPINE]
Bacterial Biotransformation [1]: Compound NOT metabolized
Bacterial Biotransformation [2]: Compound NOT metabolized
Bacterial Biotransformation [3]: Compound NOT metabolized
Bacterial Biotransformation [4]: Compound NOT metabolized
Bacterial Biotransformation [5]: Compound NOT metabolized
Bacterial Biotransformation [6]: Compound NOT metabolized
Bacterial Biotransformation [7]: Compound NOT metabolized
Bacterial Biotransformation [8]: Compound NOT metabolized
Bacterial Biotransformation [9]: Compound NOT metabolized
Bacterial Biotransformation [10]: Compound NOT metabolized
Bacterial Biotransformation [11]: Compound NOT metabolized
Bacterial Biotransformation [12]: Compound NOT metabolized
Bacterial Biotransformation [13]: Compound NOT metabolized
Bacterial Biotransformation [14]: Compound NOT metabolized
Bacterial Biotransformation [15]: Compound NOT metabolized
Bacterial Biotransformation [16]: Compound NOT metabolized
Bacterial Biotransformation [17]: Compound NOT metabolized
Bacterial Biotransformation [18]: Compound NOT metabolized

Cc1cc2c(cc1S(N)(=O)=O)S(=O)(=O)CCC2
Bacterial Biotransformation [1]: Compound NOT metabolized
Bacterial Biotransformation [2]: Compound NOT metabolized
Bacterial Biotransformation [3]: Compound NOT metabolized
Bacterial Biotransformation [4]: Compound NOT metabolized
Bacterial Biotransformation [5]: Compound NOT metabolized
Bacterial Biotransformation [7]: Compound NOT metabolized
Bacterial Biotransformation [8]: Compound NOT metabolized
Bacterial Biotransformation [9]: Compound NOT metabolized
Bacterial Biotransformation [10]: Compound NOT metabolized
Bacterial Biotransformation [11]: Compound NOT metabolized
Bacterial Biotransformation [12]: Compound NOT metabolized
Bacterial Biotransformation [19]: Compound NOT metabolized
Bacterial Biotransformation [13]: Compound NOT metabolized
Bacterial Biotransformation [14]: Compound NOT metabolized
Bacterial Biotransformation [15]: Compound NOT metabolized
Bacterial Biotransformation [16]: Compound NOT metabolized
Bacterial Biotransformation [17]: Compound NOT metabolized
Bacterial Biotransformation [18]: Compound NOT metabolized

O=C(O)CCc1nc(-c2ccccc2)c(-c2ccccc2)o1 [OXAPROZIN]
Bacterial Biotransformation [1]: Compound metabolized
Bacterial Biotransformation [2]: Compound NOT metabolized
Bacterial Biotransformation [3]: Compound NOT metabolized
Bacterial Biotransformation [5]: Compound metabolized
Bacterial Biotransformation [6]: Compound metabolized
Bacterial Biotransformation [7]: Compound metabolized
Bacterial Biotransformation [8]: Compound metabolized
Bacterial Biotransformation [9]: Compound metabolized
Bacterial Biotransformation [10]: Compound NOT metabolized
Bacterial Biotransformation [11]: Compound NOT metabolized
Bacterial Biotransformation [12]: Compound NOT metabolized
Bacterial Biotransformation [19]: Compound NOT metabolized
Bacterial Biotransformation [13]: Compound NOT metabolized
Bacterial Biotransformation [14]: Compound NOT metabolized
Bacterial Biotransformation [15]: Compound NOT metabolized
Bacterial Biotransformation [16]: Compound NOT metabolized
Bacterial Biotransformation [17]: Compound NOT metabolized
Bacterial Biotransformation [18]: Compound NOT metabolized

N#Cc1ccc(C(c2ccc(C#N)cc2)n2cncn2)cc1 [LETROZOLE]
Bacterial Biotransformation [1]: Compound NOT metabolized
Bacterial Biotransformation [2]: Compound NOT metabolized
Bacterial Biotransformation [3]: Compound NOT metabolized
Bacterial Biotransformation [4]: Compound NOT metabolized
Bacterial Biotransformation [5]: Compound NOT metabolized
Bacterial Biotransformation [6]: Compound NOT metabolized
Bacterial Biotransformation [7]: Compound NOT metabolized
Bacterial Biotransformation [8]: Compound NOT metabolized
Bacterial Biotransformation [9]: Compound NOT metabolized
Bacterial Biotransformation [10]: Compound NOT metabolized
Bacterial Biotransformation [11]: Compound NOT metabolized
Bacterial Biotransformation [12]: Compound NOT metabolized
Bacterial Biotransformation [13]: Compound NOT metabolized
Bacterial Biotransformation [14]: Compound NOT metabolized
Bacterial Biotransformation [15]: Compound NOT metabolized
Bacterial Biotransformation [16]: Compound NOT metabolized
Bacterial Biotransformation [17]: Compound NOT metabolized
Bacterial Biotransformation [18]: Compound NOT metabolized
